Experiment: Measurement of logP values by HPLC on reversed phase columns (EEC directive 79/831 Annex V.A8)
Type: physicochemical
Conditions: HPLC on reversed phase columns; usually LC-MS at pH 2.7 with 0.1% formic acid in water and acetonitrile, linear gradient 10% to 95% acetonitrile

First: CCCCN(C)Cc1cc(-c2ccnc(Nc3cccc(Cl)c3)n2)ccn1 [Compound A38]
Second: CN(C)CCN(C)Cc1cc(-c2ccnc(Nc3cccc(Cl)c3)n2)ccn1 [Compound A58]
The log p of the first is higher: 1.97 for the first, 1.44 for the second.

CN(Cc1cc(-c2ccnc(Nc3cccc(Cl)c3)n2)ccn1)CC1OCCO1 [Compound A44] and C=CCN(C)Cc1cc(-c2ccnc(Nc3cccc(Cl)c3)n2)ccn1 [Compound A59] are within 0.2 log units of each other in log p: 1.79 for the first, 1.75 for the second.

Compared with CC1(C)CCCN(Cc2cc(-c3ccnc(Nc4cccc(Cl)c4)n3)ccn2)C1 [Compound A45], CC1CCCN1Cc1cc(-c2ccnc(Nc3cccc(Cl)c3)n2)ccn1 (stereo not drawn) [Compound A46] is lower in log p: 2.1 for the first, 1.76 for the second.

CC(C)CN(C)Cc1cc(-c2ccnc(Nc3cccc(Cl)c3)n2)ccn1 [Compound A60] and CCC(C)N(C)Cc1cc(-c2ccnc(Nc3cccc(Cl)c3)n2)ccn1 (stereo not drawn) [Compound A61] are within 0.2 log units of each other in log p: 1.93 for the first, 1.88 for the second.

For CN1CCC(N(C)Cc2cc(-c3ccnc(Nc4cccc(Cl)c4)n3)ccn2)CC1 [Compound A63], the log p was 1.07.

Same assay, conditions: pH 2.7

First: CC(C)C(=O)NCc1cc(-c2ccnc(Nc3cccc(Cl)c3)n2)ccn1 [Compound A2, N-[(4-{2-[(3-chlorophenyl)amino]pyrimidin-4-yl}pyridin-2-yl)methyl]-2-methyl propanamide]
Second: CC(C)CC(=O)NCc1cc(-c2ccnc(Nc3cccc(Cl)c3)n2)ccn1 [Compound A9]
The log p of the first is lower: 2.52 for the first, 2.84 for the second.

CCCC(=O)NCc1cc(-c2ccnc(Nc3cccc(Cl)c3)n2)ccn1 [Compound A5] and COCC(=O)NCc1cc(-c2ccnc(Nc3cccc(Cl)c3)n2)ccn1 [Example A11] are within 0.2 log units of each other in log p: 2.51 for the first, 2.33 for the second.

Compared with O=C(NCc1cc(-c2ccnc(Nc3cccc(Cl)c3)n2)ccn1)C1CCC1 [Compound A7], O=C(NCc1cc(-c2ccnc(Nc3cccc(Cl)c3)n2)ccn1)C1CC1 [Compound A12] is lower in log p: 2.69 for the first, 2.39 for the second.

Compared with CC(C)=CC(=O)NCc1cc(-c2ccnc(Nc3cccc(Cl)c3)n2)ccn1 [Compound A10], CC(C)=CC(=O)OCc1cc(-c2ccnc(Nc3cccc(Cl)c3)n2)ccn1 [Compound A89] is higher in log p: 2.75 for the first, 4.01 for the second.

First: CC(C)(C)C(=O)NCc1cc(-c2ccnc(Nc3cccc(Cl)c3)n2)ccn1 [Compound A13]
Second: C=C(C)C(=O)NCc1cc(-c2ccnc(Nc3cccc(Cl)c3)n2)ccn1 [Example A8]
The log p of the first is higher: 2.88 for the first, 2.6 for the second.

Going from COCC(=S)NCc1cc(-c2ccnc(Nc3cccc(Cl)c3)n2)ccn1 [Compound A16] to CC(=O)OCc1cc(-c2ccnc(Nc3cccc(Cl)c3)n2)ccn1 [Compound A18], the log p falls from 3.29 to 3.02.

Going from CCCCCC(=O)OCc1cc(-c2ccnc(Nc3cccc(Cl)c3)n2)ccn1 [Compound A19] to CCCC(=O)OCc1cc(-c2ccnc(Nc3cccc(Cl)c3)n2)ccn1 [Example A20], the log p falls from 4.73 to 3.83.

Compared with CC(C)CC(=O)OCc1cc(-c2ccnc(Nc3cccc(Cl)c3)n2)ccn1 [Compound A21], CC(C)C(=O)OCc1cc(-c2ccnc(Nc3cccc(Cl)c3)n2)ccn1 [Compound A31] is lower in log p: 4.26 for the first, 3.89 for the second.

Compared with CC(=O)OCc1cc(-c2ccnc(N(C(C)=O)c3cccc(Cl)c3)n2)ccn1 [Compound A26], C=C(C)C(=O)OCc1cc(-c2ccnc(Nc3cccc(Cl)c3)n2)ccn1 [Compound A87] is higher in log p: 2.35 for the first, 3.78 for the second.

Compared with C#CCCCC(=O)OCc1cc(-c2ccnc(Nc3cccc(Cl)c3)n2)ccn1 [Compound A33], CCC(=O)OCc1cc(-c2ccnc(Nc3cccc(Cl)c3)n2)ccn1 [Example A22] is lower in log p: 3.73 for the first, 3.44 for the second.

Going from O=C(OCc1cc(-c2ccnc(Nc3cccc(Cl)c3)n2)ccn1)C1CCCC1 [Compound A36] to O=C(NCc1cc(-c2ccnc(Nc3cccc(Cl)c3)n2)ccn1)C1CCCC1 [Example A3], the log p falls from 4.41 to 2.88.

CN(C)Cc1cc(-c2ccnc(Nc3cccc(Cl)c3)n2)ccn1 [Compound A41] and CCN(C)Cc1cc(-c2ccnc(Nc3cccc(Cl)c3)n2)ccn1 [Compound A52] are within 0.2 log units of each other in log p: 1.57 for the first, 1.66 for the second.

Going from Clc1cccc(Nc2nccc(-c3ccnc(CN4CC=CC4)c3)n2)c1 [Compound A49] to N#CCc1cc(-c2ccnc(Nc3cccc(Cl)c3)n2)ccn1 [Compound A94], the log p rises from 1.67 to 2.94.

CN(Cc1cc(-c2ccnc(Nc3cccc(Cl)c3)n2)ccn1)C1CCCC1 [Compound A51] and CCCN(C)Cc1cc(-c2ccnc(Nc3cccc(Cl)c3)n2)ccn1 [Compound A65] are within 0.2 log units of each other in log p: 1.95 for the first, 1.81 for the second.

Going from CCN(CC)Cc1cc(-c2ccnc(Nc3cccc(Cl)c3)n2)ccn1 [Compound A53] to CCCSCc1cc(-c2ccnc(Nc3cccc(Cl)c3)n2)ccn1 [Compound A70], the log p rises from 1.78 to 3.48.

First: CN(CCC#N)Cc1cc(-c2ccnc(Nc3cccc(Cl)c3)n2)ccn1 [Compound A64]
Second: N#CCCCCSCc1cc(-c2ccnc(Nc3cccc(Cl)c3)n2)ccn1 [Compound A76]
The log p of the first is lower: 1.74 for the first, 3.35 for the second.

Going from CCCCSCc1cc(-c2ccnc(Nc3cccc(Cl)c3)n2)ccn1 [Compound A71] to CCC(C)CSCc1cc(-c2ccnc(Nc3cccc(Cl)c3)n2)ccn1 (stereo not drawn) [Compound A77], the log p rises from 4.56 to 5.

Going from COCCOCCSCc1cc(-c2ccnc(Nc3cccc(Cl)c3)n2)ccn1 [Compound A73] to CC(C)CSCc1cc(-c2ccnc(Nc3cccc(Cl)c3)n2)ccn1 [Compound A84], the log p rises from 3.11 to 4.54.

COCC(=O)NC(C)c1cc(-c2ccnc(Nc3cccc(Cl)c3)n2)ccn1 (stereo not drawn) [Compound A80] and CCCC(=O)NC(C)c1cc(-c2ccnc(Nc3cccc(Cl)c3)n2)ccn1 (stereo not drawn) [Compound A90] are within 0.2 log units of each other in log p: 2.68 for the first, 2.8 for the second.

Going from COCC(=O)NC(C)c1cc(-c2ccnc(N(C(=O)COC)c3cccc(Cl)c3)n2)ccn1 (stereo not drawn) [Compound A81] to CC(NC(=O)C1CC1)c1cc(-c2ccnc(N(C(=O)C3CC3)c3cccc(Cl)c3)n2)ccn1 (stereo not drawn) [Compound A92], the log p rises from 2.11 to 2.49.

Compared with Clc1cccc(Nc2nccc(-c3ccnc(CSCc4ccccc4)c3)n2)c1 [Compound A83], CCSCCN(C=O)Cc1cc(-c2ccnc(Nc3cccc(Cl)c3)n2)ccn1 [Compound A96] is lower in log p: 4.39 for the first, 3.17 for the second.

C=C(C)CC(=O)OCc1cc(-c2ccnc(Nc3cccc(Cl)c3)n2)ccn1 [Compound A88] and COCC(C)C(=O)OC(C)c1cc(-c2ccnc(Nc3cccc(Cl)c3)n2)ccn1 (stereo not drawn) [Compound A99] are within 0.2 log units of each other in log p: 3.92 for the first, 3.83 for the second.

Compared with CC(c1cc(-c2ccnc(N(C(=O)C3CC3)c3cccc(Cl)c3)n2)ccn1)N(C(=O)C1CC1)C(=O)C1CC1 (stereo not drawn) [Compound A91], CC(NC(=O)C1CC1)c1cc(-c2ccnc(Nc3cccc(Cl)c3)n2)ccn1 (stereo not drawn) [Compound A93] is lower in log p: 3.71 for the first, 2.64 for the second.

CC(C)(C)OC(=O)NCc1cc(-c2ncnc(Nc3cccc(Cl)c3)n2)ccn1 [Compound C1] and CC(C)OC(=O)NCc1cc(-c2ncnc(Nc3cccc(Cl)c3)n2)ccn1 [Compound C3] are within 0.2 log units of each other in log p: 3.1 for the first, 2.94 for the second.

C=COC(=O)NCc1cc(-c2ncnc(Nc3cccc(Cl)c3)n2)ccn1 [Compound C5] gave a log p of 2.84.

Same assay, conditions: reversed phase HPLC column; HPLC on reversed phase columns; usual method: LC-MS at pH 2.7, 0.1% formic acid in water / acetonitrile, linear gradient 10% to 95% acetonitrile; read-out: logP

First: CCC(C)CNC(C)c1cc(-c2ccnc(Nc3cccc(Cl)c3)n2)ccn1 (stereo not drawn) [Compound A97, N-(3-chlorophenyl)-4-(2-{1-[(2-methylbutyl)amino]ethyl}pyridin-4-yl)pyrimidin-2-amine]
Second: CC(=O)OC(C)c1cc(-c2ccnc(Nc3cccc(Cl)c3)n2)ccn1 (stereo not drawn) [Compound A98, 1-(4-{2-[(3-chlorophenyl)amino]pyrimidin-4-yl}pyridin-2-yl)ethyl acetate]
The chromatographic logP of the first is lower: 2.13 for the first, 3.33 for the second.

Same assay, conditions: reversed phase HPLC column; HPLC on reversed phase columns; usually LC-MS at pH 2.7 with 0.1% formic acid in water and acetonitrile, linear gradient 10% to 95% acetonitrile; read-out: log p

Compared with NCc1cc(-c2ccnc(Nc3cccc(Cl)c3)n2)ccn1 [Compound A1, 4-[2-(aminomethyl)pyridin-4-yl]-N-(3-chlorophenyl)pyrimidin-2-amine], ClCc1cc(-c2ccnc(Nc3cccc(Cl)c3)n2)ccn1 [Compound A15, 4-[2-(chloromethyl)pyridin-4-yl]-N-(3-chlorophenyl)pyrimidin-2-amine] is higher in chromatographic logP: 1.52 for the first, 3.46 for the second.

CCC(C)CNC(=S)NCc1cc(-c2ccnc(Nc3cccc(Cl)c3)n2)ccn1 (stereo not drawn) [Compound A6, 1-[(4-{2-[(3-chlorophenyl)amino]pyrimidin-4-yl}pyridin-2-yl)methyl]-3-(2-methylbutyl)thiourea] and CCSCc1cc(-c2ccnc(Nc3cccc(Cl)c3)n2)ccn1 [Compound A69, N-(3-chlorophenyl)-4-{2-[(ethylsulfanyl)methyl]pyridin-4-yl}pyrimidin-2-amine] are within 0.2 log units of each other in chromatographic logP: 3.59 for the first, 3.64 for the second.

Going from Clc1cccc(Nc2nccc(-c3ccnc(CN4CCCCC4)c3)n2)c1 [Compound A17, N-(3-chlorophenyl)-4-[2-(piperidin-1-ylmethyl)pyridin-4-yl]pyrimidin-2-amine] to C=CCC(=O)OCc1cc(-c2ccnc(Nc3cccc(Cl)c3)n2)ccn1 [Compound A37, (4-{2-[(3-chlorophenyl)amino]pyrimidin-4-yl}pyridin-2-yl)methyl but-3-enoate], the chromatographic logP rises from 1.81 to 3.64.

COCc1cc(-c2ccnc(N(C)c3cccc(Cl)c3)n2)ccn1 [Compound A25, N-(3-chlorophenyl)-4-[2-(methoxymethyl)pyridin-4-yl]-N-methylpyrimidin-2-amine] showed a chromatographic logP of 3.02.

Same assay, conditions: reversed phase HPLC column; LC-MS at pH 2.7, 0.1% formic acid in water / acetonitrile, gradient 10% to 95% acetonitrile; read-out: log p

Work on CCOC(=O)NCc1cc(-c2ncnc(Nc3cccc(Cl)c3)n2)ccn1 [Compound C4, ethyl[(4-{4-[(3-chlorophenyl)amino]-1,3,5-triazin-2-yl}pyridin-2-yl)methyl]carbamate] yielded a chromatographic logP of 2.64.

Same assay, conditions: reversed phase HPLC column; LC-MS at pH 7.8, 0.001 molar ammonium hydrogen carbonate in water, gradient 10% to 95% acetonitrile; read-out: log p [c]

Compound NCc1cc(-c2ncnc(Nc3cccc(Cl)c3)n2)ccn1 [Compound C6, 4-[2-(aminomethyl)pyridin-4-yl]-N-(3-chlorophenyl)-1,3,5-triazin-2-amine] has a chromatographic logP of 1.74.
